Measurements taken from patent US20120035161A1, “Novel Compositions and Methods of Treating Diseases Using the Same” (CORRIDOR PHARMACEUTICALS, INC., priority 2006, published 2012).
Several values for one entry are separate records, joined by “and”; a condition that tells them apart may be missing. Equal entries are not always repeated.

Key:
[1] = Phospholipidosis assay (LipidTox); type: cell-based; conditions: human
Procedure: (§1) More recently, fluorescent dyes have been utilized to assess phospholipidosis in a high throughput manner (Nioi et al., 2007, Toxicol. Sci. 99:162-173). In this assay, HepG2 cells are plated in MEM growth medium and allowed to incubate overnight. Cells are treated with test compounds that have been added to the assay medium (10% fetal bovine serum) containing LipidTox (fluorescent lipophilic dye). After 48 h incubation, cells are fixed and stained with Hoechst. Plates are scanned with an automated fluorescent microscope (Thermo Fisher Cellomics ArrayScan 4.5) and image analysis is used to quantitate cell number and phospholipid accumulation. Compounds are tested in triplicate at multiple concentrations. Three reference compounds, sertraline, perhexyline, and meclizine (high, medium, and low inducers of phospholipidosis, respectively) are included in each assay. The data is expressed as fold induction over background and the % of the positive control (sertraline), which is calculated using the following equation:
(§2) % positive control=100×(RFUcompound−RFUbackground)/(RFUsertaline−RFUbackground),
(§3) where RFU=Relative Fluorescence Unit

HepG2 cells = test: Phospholipidosis assay (LipidTox); type: cell-based
Procedure: as §1, §2, §3

[2] = system: cryopreserved mixed gender human hepatocytes; test: Hepatocyte stability assay; type: in vitro ADME
Procedure: Test compounds (5 μM) were incubated with cryopreserved mixed gender human hepatocytes pooled from at least 3 donors. Cell viability of hepatocytes was assessed by a Trypan Blue assay prior to the initiation of the stability assay. The final hepatocyte cell density was 1.5×10^6 viable cells/mL, Samples were taken at 2 time points: 0 and 60 minutes. As positive controls, testosterone (20 μM) and 7-hydroxy-coumarin (100 μM) were incubated and sampled at 5 time points: 0, 15, 30, 60, and 120 minutes. Aliquots were removed and combined (50/50) with acetonitrile to terminate the reaction. Samples were mixed for 10 minutes and centrifuged. The supernatants were transferred to vial for analysis by HRMS. In this assay, both test compound and a des-glycine metabolite (M1) are quantified based on peak area response ratios.
The enzymatic activities of the human cryopreserved hepatocytes used in this study were verified in parallel by determining the disappearance of testosterone (expressed as half-life) and the formation of 7-hydroxycoumarin glucuronide and 7-hydroxycoumarin sulfate (expressed as a formation rate).

[3] = system: Serotonin (5-Hydroxytryptamine) 5-HT1, Non-Selective; test: Assay 271000 radioligand binding, 5-HT1 non-selective; design: species or system Wistar Rat
Procedure: (§4) The methods employed in this study have been adapted from the scientific literature to maximize reliability and reproducibility. Reference standards were run as an integral part of each assay to ensure the validity of the results obtained. Assays were performed under conditions as described below. Where presented, IC50 values were determined by a non-linear, least squares regression analysis using the Data Analysis Toolbox (MDL Information Systems, San Leandro, Calif., USA). Where inhibition constants (Ki) are presented, the Ki values were calculated using the equation of Cheng and Prusoff (Cheng, Y., Prusoff, W. H., Biochem. Pharmacol. 22:3099-3108, 1973) using the observed IC50 of the tested compound, the concentration of radioligand employed in the assay, and historical values for the KD of the ligand. Where presented, the Hill coefficient (nu), defining the slope of the competitive binding curve, was calculated using the Data Analysis Toolbox.

[4] = biological target: T1, Serotonin (5-Hydroxytryptamine) 5-HT1A (Homo sapiens, UniProt P08908); test: Radioligand binding, 5-HT1A ([3H] 8-OH-DPAT)
T1 construct: expressed in transfected cells; host or cells: CHO cells
T1 sequence (P08908 1-422): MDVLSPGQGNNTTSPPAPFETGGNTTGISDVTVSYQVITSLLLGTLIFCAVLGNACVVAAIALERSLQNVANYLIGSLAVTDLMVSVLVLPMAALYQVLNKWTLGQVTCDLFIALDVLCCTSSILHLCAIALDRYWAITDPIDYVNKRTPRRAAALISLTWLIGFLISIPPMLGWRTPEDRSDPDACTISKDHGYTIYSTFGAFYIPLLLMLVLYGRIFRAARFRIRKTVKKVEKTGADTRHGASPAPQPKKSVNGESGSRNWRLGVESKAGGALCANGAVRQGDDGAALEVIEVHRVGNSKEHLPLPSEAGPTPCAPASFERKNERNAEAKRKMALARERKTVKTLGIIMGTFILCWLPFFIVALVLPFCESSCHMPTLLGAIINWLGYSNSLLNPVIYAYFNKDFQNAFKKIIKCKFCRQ
Procedure: as §4

[5] = biological target: T2, Serotonin (5-Hydroxytryptamine) 5-HT1B (Rattus norvegicus, UniProt P28564); test: Assay 271200 radioligand binding, 5-HT1B; design: species or system Wistar Rat
T2 construct: from tissue
T2 sequence (P28564 whole entry): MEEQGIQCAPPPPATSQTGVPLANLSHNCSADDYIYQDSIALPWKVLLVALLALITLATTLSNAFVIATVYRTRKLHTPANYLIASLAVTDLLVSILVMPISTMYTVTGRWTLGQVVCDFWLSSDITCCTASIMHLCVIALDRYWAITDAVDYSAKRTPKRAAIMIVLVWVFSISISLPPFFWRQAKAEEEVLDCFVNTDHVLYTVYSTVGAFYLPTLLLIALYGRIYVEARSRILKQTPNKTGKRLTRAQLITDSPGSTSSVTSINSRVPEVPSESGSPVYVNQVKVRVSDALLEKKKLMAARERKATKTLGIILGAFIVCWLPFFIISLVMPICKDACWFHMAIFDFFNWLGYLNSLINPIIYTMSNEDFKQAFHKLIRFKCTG
Procedure: as §4

[6] = system: Serotonin (5-Hydroxytryptamine) 5-HT2, Non-Selective; test: Assay 271600 radioligand binding, 5-HT2 non-selective; design: species or system Wistar Rat
Procedure: as §4

TNF-α = test: Model of LPS-mediated cytokine production, serum TNF-α; type: in vivo, CD1:ICR mice; conditions: for TNFα inhibition, dose-response study: IP, up to a dose of 5 mg/kg
Procedure: (§5) Both ICI-685 and ICI-735 were formulated in water. For the time course study, both drugs were formulated at a concentration of 1 mg/ml and dosed 10 ml/kg to produce a dose of 10 mg/kg. For the dose-response study, drug was formulated at concentrations of 0.05, 0.2 and 0.5 mg/ml and dosed at a volume of 10 ml/kg to produce doses of 0.5, 2 and 5 mg/kg, respectively. Animals were dosed IV or IP.
CD1:ICR mice were obtained from Harlan (Indianapolis, Ind.) at 6 weeks of age. Animals were housed 5 per cage, kept on a 12 hr light dark cycle and fed food and water ad libitum. Animals were tested at 8-10 weeks of age.
(§6) Lipopolysaccharide (heat killed E. coli 0127:B5; Sigma Aldrich) was prepared in distilled water at a concentration of 0.025 mg/ml. LPS was dosed at a volume of 10 ml/kg (IP) to produce a final dose of 0.25 mg/kg (approximately 7.5 μg/mouse). Drugs were dosed prior to LPS administration as indicated elsewhere herein. Blood was collected by retro-orbital eye bleed 90 minutes after LPS administration, Serum was prepared from blood and TNF-α and IL-1β levels were measured by using the OPT-EIA mouse TNF-α and IL-1β ELISA kits (BD Biosciences) as per directions of the manufacturer.
The first study was designed to determine the optimal route of administration and the optimal pre-treatment time. Two pre-dose time course studies were conducted. The first (Study 1A) was conducted with 3 pre-dose time points (2, 6 and 18 hrs). The second was conducted at 0, 1 and 2 hr predose time points. For both studies, drug was dosed IP or IV.
Using data from the first study, a second study was conducted that was designed to measure dose-response activity of each compound. Compounds were tested at doses of […]., 2.0 and 5 mg/kg using the route and pre-treatment time that produced the best activity.
as §5, with “Compounds ICI-715, ICI-824, ICI-953” for “Both ICI-685”, “ICI-954” for “ICI-735”, “study,” for “study, both”, “drugs were” for “drug was”
as §6, with “mg/ml,” for “mg/ml.”, “[…]).” for “μg/mouse).”, “above.” for “elsewhere herein.”, “administration.” for “administration,”
The first study was designed to determine the optimal route of administration and the optimal pre-treatment time. One pre-dose time course was conducted (for all compounds) with compounds administered at 0, 1 and 2 hrs prior to LPS treatment. For both studies, drug was dosed IP or IV. The IP study and IV study were conducted on separate days.
Using data from the first study, a second study was conducted that was designed to measure dose-response activity of each compound. Compounds were tested at doses of 0.5, 2.0 and 5 mg/kg using the route and pre-treatment time that produced the best activity.

[7] = T = 60 minutes, 5 μM test compound

| % INHIBITION ([3]; 0.1 μM) | % INHIBITION ([3]; 10 μM) | % INHIBITION ([6]; 0.1 μM) | % INHIBITION ([6]; 10 μM) | % INHIBITION ([4]; 0.1 μM) | % INHIBITION ([4]; 10 μM) | % INHIBITION ([5]; 0.1 μM) | % INHIBITION ([5]; 10 μM) | SMILES | other results |
| --- | --- | --- | --- | --- | --- | --- | --- | --- | --- |
| −20% | 3% | 38% | 94% | 4% | 69% | −3% | 0% | NCCN1CCC(CCN2c3ccccc3Sc3ccc(C(F)(F)F)cc32)CC1 [ICI-1008] | – |
| −2% | 10% | 15% | 85% | – | – | – | – | CNCC(=O)NCCN1CCC(CCCN2c3ccccc3Sc3ccc(C(F)(F)F)cc32)CC1 [ICI-849] | inhibition at 0.1 µM ([4]; 0.1 μM): 18%; inhibition at 10 µM ([4]; 10 μM): 65%; inhibition at 0.1 µM ([5]; 0.1 μM): -7%; inhibition at 10 µM ([5]; 10 μM): -2% |
| −12% | 24% | 51% | 87% | 2% | 48% | 8% | 48% | FC(F)(F)c1ccc2c(c1)N(CCC1CCNCC1)c1ccccc1S2 [ICI-1007] | – |
| −10% | −1% | 16% | 71% | 5% | 54% | 7% | 2% | NCCN1CCN(CCCCN2c3ccccc3Sc3ccc(C(F)(F)F)cc32)CC1 [ICI-953] | TNFα inhibition, dose-response study (TNF-α): ineffective |

More lines, now with the values behind:

| SMILES | % INHIBITION ([3]; 0.1 μM) | % INHIBITION ([3]; 10 μM) | % INHIBITION ([6]; 0.1 μM) | % INHIBITION ([6]; 10 μM) | % INHIBITION ([4]; 0.1 μM) | % INHIBITION ([4]; 10 μM) | % INHIBITION ([5]; 0.1 μM) | % INHIBITION ([5]; 10 μM) | other results |
| --- | --- | --- | --- | --- | --- | --- | --- | --- | --- |
| CN[C@H]1CC[C@@H](c2ccc(Cl)c(Cl)c2)c2ccccc21 [Sertaline, sertraline, reference compound] | – | – | – | – | – | – | – | – | cytotoxicity at 48 h, 3 µM [1]: 15%; fold induction at 48 h, 3 µM [1]: 52; % Positive Control (HepG2 cells; human, 48 h, 3 μM): 100% |
| CC(C)(N)C(=O)NCCN1CCN(CCCN2c3ccccc3Sc3ccc(C(F)(F)F)cc32)CC1 [Compound 36a, 2-Amino-2-methyl-N-(2-(4-(3-(2-(trifluoromethyl)-10H-phenothiazin-10-yl)propyl)piperazin-1-yl)ethyl)propanamide] | – | – | – | – | – | – | – | – | Relative Level (%) ([2]; T = 0 minutes, 5 μM test compound): 97.3% and 102.8%; Peak Areas [2, 7]: 3.42E+06 and 3.82E+06; Relative Level (%) [2, 7]: 99.0% and 109.1%; susceptibility to the metabolic transformation to the metabolite M1 ([2]; compared with ICI-735): less susceptible |
| FC(F)(F)c1ccc2c(c1)N(CCCC1CCNCC1)c1ccccc1S2 [ICI-824] | −14% | 11% | 28% | 84% | – | – | – | – | inhibition at 0.1 µM ([4]; 0.1 μM): 2%; inhibition at 10 µM ([4]; 10 μM): 53%; inhibition at 0.1 µM ([5]; 0.1 μM): 2%; inhibition at 10 µM ([5]; 10 μM): 6%; TNFα inhibition, dose-response study (TNF-α): ineffective |
| NCC(=O)NCCN1CCN(CCCCN2c3ccccc3Sc3ccc(C(F)(F)F)cc32)CC1 [ICI-954] | −3% | 18% | 21% | 89% | 6% | 56% | 4% | −1% | TNFα inhibition, dose-response study (TNF-α): ineffective |
| C1CCC(C(CC2CCCCN2)C2CCCCC2)CC1 (stereo not shown) [Perhexil, perhexyline, reference compound] | – | – | – | – | – | – | – | – | % Cytotoxicity (HepG2 cells; 3 μM, 48 h): 10%; Fold Induction (HepG2 cells; 3 μM, 48 h): 38; % Positive Control (HepG2 cells; 3 μM, 48 h, positive control sertraline): 72% |
| Cc1cccc(CN2CCN(C(c3ccccc3)c3ccc(Cl)cc3)CC2)c1 (stereo not shown) [Meclizine, meclizine, reference compound] | – | – | – | – | – | – | – | – | cytotoxicity at 48 h, 25 µM [1]: 0%; fold induction at 48 h, 25 µM [1]: 13; % Positive Control (HepG2 cells; human, 48 h, 25 μM): 24% |
| CN(C)S(=O)(=O)c1ccc2c(c1)N(CCCN1CCN(CCN)CC1)c1ccccc1S2 [ICI-715] | 15% | 62% | 18% | 83% | – | – | – | – | inhibition at 0.1 µM ([4]; 0.1 μM): 5%; inhibition at 10 µM ([4]; 10 μM): 87%; inhibition at 0.1 µM ([5]; 0.1 μM): 23%; inhibition at 10 µM ([5]; 10 μM): 90%; inhibition of TNFα (TNF-α; dose-response, all doses tested 0.5 to 5 mg/kg, IV): ≥ 50% |
| O=CNCC(=O)NCCN1CCN(CCCN2c3ccccc3Sc3ccc(C(F)(F)F)cc32)CC1 [Compound 37b, 2-formamido-N-(2-(4-(3-(2-(trifluoromethyl)-10H-phenothiazin-10-yl)propyl)piperazin-1-yl)ethyl)acetamide] | – | – | – | – | – | – | – | – | cytotoxicity at 48 h, 1 µM [1]: 32%; cytotoxicity at 48 h, 3 µM [1]: 17%; cytotoxicity at 48 h, 10 µM [1]: 46%; cytotoxicity at 48 h, 30 µM [1]: 100%; fold induction at 48 h, 1 µM [1]: 1; fold induction at 48 h, 3 µM [1]: 4; fold induction at 48 h, 10 µM [1]: 12; cytotoxicity to HepG2 cells (HepG2 cells): less cytotoxicity; propensity to form phospholipidosis (HepG2 cells): lower propensity; % Positive Control (HepG2 cells; human, 48 h, 1 μM): 0.2%; % Positive Control (HepG2 cells; human, 48 h, 3 μM): 5.8%; % Positive Control (HepG2 cells; human, 48 h, 10 μM): 21.3% |
